Results on one compound are retold here after patent US11844801B2, “Oral compositions of MK2 pathway inhibitor for treatment of immune conditions” (priority 2020, dated 2023).

SMILES strings stand for the structures. Read-outs that look alike come from different tables or passages of the source.

Data set [1] has as its system TNF-α. Nature of the data set: Rat whole blood LPS stimulated TNF-α. The format is cell-based. The note with it: 100 ng/mL, 4 hr.
Data set [2] relates to endogenous cytokines (TNF-α, IL-6, IL-8, MIP1β, IL-1RA). The experiment in a line: Phase 2a RA study: endogenous plasma cytokines. Type of data set: in vivo, human. The following applies: 50 mg BID. How it is done:
Pharmacodynamics. […] For the endogenous cytokine levels (e.g., TNF-α, IL-1β, IL-6, IL-8, IFNγ, IL-17, IL-18, IL-10, IL-1α, and IL-1RA), 1 mL of serum will be drawn at each identified time point. […] Samples were evaluated at trough drug levels through day 84 and the last point is near Cmax following the final dose on day 84. The horizontal line ( ? ) in FIG. 19A depicts TNF-α levels in blood from normal volunteer subjects that were evaluated in the same assay. […] The horizontal line ( ? ) in FIG. 19B represents IL-1RA levels in healthy subjects. […] Plasma levels of three proinflammatory cytokines (TNF-α (FIG. 20A), IL-6 (FIG. 20C), IL-8 (FIG. 20B)), from a 13-plex tested are shown in this Figure, along with the chemokine MIP1β (FIG. 20D). The data are expressed as median % change relative to pre-dosing for drug treated patients. […] The horizontal line ( ? ) describes cytokine/chemokine level in plasma from normal healthy volunteer subjects.

Data set [3] concerns TNF-α. The experiment in a line: Porcine whole blood LPS stimulated TNF-α assay. Type of data set: cell-based. The following applies: Sus scrofa, Pig Whole Blood, 10 µg/mL, 4 hr. How it is done: Porcine LPS stimulated TNF-α Assay—Porcine whole blood was collected into heparinized vacutainers then transferred into conical tubes and shipped overnight on wet ice. Porcine whole blood was aliquoted (160 μL/well) into round bottom 96 well tissue culture plates. Compounds were serially diluted in 100% DMSO (Sigma-Aldrich, D2650) followed by a 100× dilution into RPMI/10% FBS (Gibco, 11875/26140). The diluted compounds were then added to each plate in duplicate 20 μL aliquots for final concentrations ranging from 10 μM to 1 pM. DMSO final concentration was 0.1%. After a one-hour incubation at 37° C. with 5% CO2, 20 μL of LPS (Sigma-Aldrich, L2630), in RPMI/10% FBS (Gibco, 11875/26140) was added for a final concentration of 10 μg/mL to each well except for the no stimulus wells. After four hours of incubation with LPS, plasma was harvested by centrifugation at 1,800×g for five minutes. The plasmas were assayed for TNF-α levels using a porcine specific TNF-α Quantikine ELISA kit (R&D, PTA00) according to the kit protocol.

The test system of data set [4] is TNF-α. Nature of the data set: R848 stimulated TNF-α production in human whole blood. Type of data set: cell-based. The following applies: R848, 0.5 ug/mL, 5 hr. How it is done:
Human whole blood assays were performed as described above with the exceptions listed below. […] Compounds were serially diluted in 100% DMSO (Sigma-Aldrich, D2650) followed by a 10× dilution into RPMI (Gibco, 11875). After the one-hour incubation with the compounds or vehicle, 2 μL of R848 (InvivoGen, tlrl-r848) in RPMI (Gibco, 11875) was added for a final concentration of 0.5 μg/mL to each well except for the no stimulus wells. After five hours of incubation with R848, plasma was harvested and assayed for TNF-α, IL-1β, IL-6 and IL-8 using Meso Scale Discovery Technology V-plex human cytokine kits according to the kit protocol.

Data set [5] can be described thus: 13-week oral administration non-clinical safety study, mini-pig. The following applies: for Cmax / AUC(0-t): 60 mg/kg/day oral; for AUC(0-t): read-out: AUC0-24. Type of data set: in vivo. The method, then: Study Design. […] Rats were administered 0 (vehicle), 3, 10 and 30 mg/kg/day, and Mini-pigs were administered 0 (vehicle) 10, 30 and 60 mg/kg/day
Where [6] appears, read: female, minipig, in vivo, study day 90, females.
[7] abbreviates: male, minipig, in vivo, study day 90, males.

As to `Cc1cnc(-c2ccnc(C(C)(C)O)n2)cc1-n1c(C)cc(OCc2ncc(F)cc2F)c(Cl)c1=O` (single isomer, unassigned) [ATI-450, 3-chloro-4-((3,5-difluoropyridin-2-yl)methoxy)-2′-(2-(2-hydroxypropan-2-yl)pyrimidin-4-yl)-5′,6-dimethyl-2H-[1,4′-bipyridin]-2-one], the results for the IC50 with TNF-α [1], in the data set on TNF-α [3] and in the data set with TNF-α [4] were 14.3 ± 1.9 nM, 7.4 nM and 34.8 ± 5 nM, respectively. Also, in data set [2] (12-week period), the “median concentrations of endogenous TNF-α, IL-6, IL-8, and MIP1β” value was “marked and sustained inhibition”. In data set [2] (12 weeks), the “endogenous plasma IL-1RA” value was “not impacted by ATI-450”. Further, the “endogenous plasma IL-6, IL-8, and MIP1β” value in data set [2] (12 weeks) was “reduced at week 4 and this reduction was maintained through the 12 weeks”. Further, the “endogenous plasma TNF-α” value in data set [2] (trough) is “rapidly reduced by 4 weeks of dosing”. For the same compound, in data set [5] (13-week oral, up to 60 mg/kg/day), the mortality result is “No study drug-related mortality was observed”. The figures for the Cmax in data set [5] (setting [6]) and in data set [5] (setting [7]) were 2360 ng/mL and 1670 ng/mL, respectively. For the same compound, the values for the AUC(0-t) in data set [5] (setting [6]) and in data set [5] (setting [7]) were 22600 ng·h/mL and 14400 ng·h/mL, respectively. Further, in data set [5] (males at ≥10 mg/kg/day and females at 60 mg/kg/day), the “non-adverse findings, haematology” value was “Slightly increased neutrophil, lymphocyte and platelet counts”. In data set [5] (minipig, in vivo, 13-week oral, read-out: no-observed adverse effect level (NOAEL)), the no observed adverse effect level (NOAEL) at 13 weeks is 60 mg/kg/day.

The IC50 is the concentration that inhibits the measured activity by half. The Cmax is the maximum level reached in the sampled fluid or tissue. For orientation: NOAEL means the highest dose or exposure tested at which no adverse effect was seen.
